In test [1] the test system is Chinese hamster lung fibroblast cell line VC8 (BRCA2−/−). Briefly: In vitro cell proliferation inhibition (MTT), VC8 cells. Conditions: Cricetulus griseus, V-C8, 72 h, MTT, 72 h, VC8 (BRCA2−/−); read-out: VC8 cell IC50. Format: cell-based.
For test [2], the system named is wild type cell line V79. The test is described as follows: In vitro cell proliferation inhibition (MTT), V79 cells. Format: cell-based, Chinese hamster. Conditions: Cricetulus griseus; MTT, 72 h, wild type V79; read-out: V79 cell IC50.
Test [3] addresses PARP1 (Homo sapiens, UniProt P09874). The test is described as follows: Enzymatic inhibition on the PARP family members (ELISA), PARP1. Format: biochemical. (In general: In an ELISA, binding on a coated surface is turned into a signal by an enzyme label.)
The target of test [4] is PARP2 (Homo sapiens, UniProt Q9UGN5). The test is described as follows: Enzymatic inhibition on the PARP family members (ELISA), PARP2. Format: biochemical. Conditions: PARP family panel.
Sequence of PARP2 (Q9UGN5 whole entry): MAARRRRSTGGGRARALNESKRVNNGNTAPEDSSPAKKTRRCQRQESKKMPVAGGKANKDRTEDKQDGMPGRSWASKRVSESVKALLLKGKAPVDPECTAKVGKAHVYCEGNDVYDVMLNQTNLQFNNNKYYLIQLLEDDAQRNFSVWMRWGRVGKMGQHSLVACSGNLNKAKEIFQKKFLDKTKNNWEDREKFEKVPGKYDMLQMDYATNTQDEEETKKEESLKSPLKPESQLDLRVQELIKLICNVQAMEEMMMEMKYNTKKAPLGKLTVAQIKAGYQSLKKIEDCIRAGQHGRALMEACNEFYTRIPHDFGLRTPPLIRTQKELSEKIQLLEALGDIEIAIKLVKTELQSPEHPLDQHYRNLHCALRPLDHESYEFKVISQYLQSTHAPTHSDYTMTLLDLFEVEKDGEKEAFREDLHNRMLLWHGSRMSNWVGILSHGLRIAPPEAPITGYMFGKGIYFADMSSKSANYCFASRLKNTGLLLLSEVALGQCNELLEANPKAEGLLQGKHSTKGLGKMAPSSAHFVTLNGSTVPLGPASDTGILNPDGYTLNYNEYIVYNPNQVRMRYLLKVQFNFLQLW
For test [5], the target named is T1, TNKS1 (Homo sapiens, UniProt O95271).
T1 sequence (O95271 1-1327): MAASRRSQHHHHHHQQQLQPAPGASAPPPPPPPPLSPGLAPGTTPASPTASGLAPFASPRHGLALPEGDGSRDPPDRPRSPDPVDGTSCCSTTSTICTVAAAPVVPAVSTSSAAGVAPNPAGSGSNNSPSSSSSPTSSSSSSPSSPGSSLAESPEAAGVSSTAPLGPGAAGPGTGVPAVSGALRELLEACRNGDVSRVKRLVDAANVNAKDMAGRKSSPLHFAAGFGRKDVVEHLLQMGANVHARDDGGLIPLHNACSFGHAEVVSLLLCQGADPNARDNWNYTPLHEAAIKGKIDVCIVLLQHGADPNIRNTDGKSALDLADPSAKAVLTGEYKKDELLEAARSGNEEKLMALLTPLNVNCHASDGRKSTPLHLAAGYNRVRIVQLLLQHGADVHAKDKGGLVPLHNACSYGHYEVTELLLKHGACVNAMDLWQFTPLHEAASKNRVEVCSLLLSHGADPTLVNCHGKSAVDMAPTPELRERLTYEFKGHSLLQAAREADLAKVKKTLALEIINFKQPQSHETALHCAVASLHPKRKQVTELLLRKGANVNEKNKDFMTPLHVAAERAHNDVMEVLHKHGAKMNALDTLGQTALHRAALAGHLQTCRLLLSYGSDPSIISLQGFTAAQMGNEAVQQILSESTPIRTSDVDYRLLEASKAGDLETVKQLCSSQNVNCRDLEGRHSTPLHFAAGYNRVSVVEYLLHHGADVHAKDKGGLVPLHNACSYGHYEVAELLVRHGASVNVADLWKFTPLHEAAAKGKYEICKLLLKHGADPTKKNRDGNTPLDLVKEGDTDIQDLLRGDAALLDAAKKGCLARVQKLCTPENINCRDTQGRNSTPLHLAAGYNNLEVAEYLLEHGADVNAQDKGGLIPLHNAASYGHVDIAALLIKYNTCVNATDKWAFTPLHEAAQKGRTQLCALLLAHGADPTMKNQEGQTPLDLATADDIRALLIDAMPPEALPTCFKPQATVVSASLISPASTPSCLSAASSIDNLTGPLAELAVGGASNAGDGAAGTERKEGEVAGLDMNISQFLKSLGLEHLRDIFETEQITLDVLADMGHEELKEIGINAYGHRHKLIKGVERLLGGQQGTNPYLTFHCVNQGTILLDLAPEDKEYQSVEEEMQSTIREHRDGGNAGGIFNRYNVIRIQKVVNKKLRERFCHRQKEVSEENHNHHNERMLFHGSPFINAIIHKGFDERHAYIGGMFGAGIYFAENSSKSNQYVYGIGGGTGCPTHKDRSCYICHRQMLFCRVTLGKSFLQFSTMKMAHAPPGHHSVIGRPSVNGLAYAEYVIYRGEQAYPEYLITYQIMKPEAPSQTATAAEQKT
The test is described as follows: Enzymatic inhibition on the PARP family members (ELISA), TNKS1. Format: biochemical. Conditions: PARP family panel, 30° C.

Test [6] has as its target T2, TNKS2 (Homo sapiens, UniProt Q9H2K2).
T2 sequence (Q9H2K2 1-1166): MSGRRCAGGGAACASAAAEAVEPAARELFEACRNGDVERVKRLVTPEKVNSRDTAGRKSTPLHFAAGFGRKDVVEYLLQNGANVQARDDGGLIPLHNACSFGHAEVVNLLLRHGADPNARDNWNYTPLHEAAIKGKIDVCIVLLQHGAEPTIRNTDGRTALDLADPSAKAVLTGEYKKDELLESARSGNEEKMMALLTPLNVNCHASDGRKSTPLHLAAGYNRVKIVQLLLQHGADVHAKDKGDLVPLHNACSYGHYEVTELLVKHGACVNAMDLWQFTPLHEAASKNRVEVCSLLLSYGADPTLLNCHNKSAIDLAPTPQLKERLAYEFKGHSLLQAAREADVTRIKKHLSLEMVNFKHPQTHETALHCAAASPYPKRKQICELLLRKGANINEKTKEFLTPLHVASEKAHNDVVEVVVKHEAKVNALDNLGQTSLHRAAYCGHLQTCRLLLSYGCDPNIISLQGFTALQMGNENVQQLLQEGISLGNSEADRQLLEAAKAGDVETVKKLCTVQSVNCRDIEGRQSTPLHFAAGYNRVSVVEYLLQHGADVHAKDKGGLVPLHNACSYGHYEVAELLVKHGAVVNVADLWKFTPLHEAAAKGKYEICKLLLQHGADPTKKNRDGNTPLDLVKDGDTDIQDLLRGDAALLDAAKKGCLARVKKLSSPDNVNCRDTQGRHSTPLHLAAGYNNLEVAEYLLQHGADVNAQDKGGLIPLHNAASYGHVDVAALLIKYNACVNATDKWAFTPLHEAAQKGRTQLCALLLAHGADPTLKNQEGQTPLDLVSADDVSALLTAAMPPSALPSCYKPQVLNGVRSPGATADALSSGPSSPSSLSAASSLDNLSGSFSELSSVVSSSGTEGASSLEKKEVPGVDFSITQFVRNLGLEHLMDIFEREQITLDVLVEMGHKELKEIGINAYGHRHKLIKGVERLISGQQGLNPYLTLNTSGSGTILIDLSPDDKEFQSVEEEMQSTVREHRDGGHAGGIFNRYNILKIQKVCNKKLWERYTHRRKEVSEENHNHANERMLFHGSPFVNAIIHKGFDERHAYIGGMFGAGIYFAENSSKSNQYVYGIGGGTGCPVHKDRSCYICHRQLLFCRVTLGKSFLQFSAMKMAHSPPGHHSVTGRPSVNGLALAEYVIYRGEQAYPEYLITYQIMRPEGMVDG
Briefly: Enzymatic inhibition on the PARP family members (ELISA), TNKS2. Format: biochemical. Conditions: PARP family panel, 30° C.

A value given as a limit tells only on which side of the number the result lay.

The term IC50 denotes the point on the concentration scale where inhibition reaches its midpoint.

Sequence of PARP1 (P09874 whole entry): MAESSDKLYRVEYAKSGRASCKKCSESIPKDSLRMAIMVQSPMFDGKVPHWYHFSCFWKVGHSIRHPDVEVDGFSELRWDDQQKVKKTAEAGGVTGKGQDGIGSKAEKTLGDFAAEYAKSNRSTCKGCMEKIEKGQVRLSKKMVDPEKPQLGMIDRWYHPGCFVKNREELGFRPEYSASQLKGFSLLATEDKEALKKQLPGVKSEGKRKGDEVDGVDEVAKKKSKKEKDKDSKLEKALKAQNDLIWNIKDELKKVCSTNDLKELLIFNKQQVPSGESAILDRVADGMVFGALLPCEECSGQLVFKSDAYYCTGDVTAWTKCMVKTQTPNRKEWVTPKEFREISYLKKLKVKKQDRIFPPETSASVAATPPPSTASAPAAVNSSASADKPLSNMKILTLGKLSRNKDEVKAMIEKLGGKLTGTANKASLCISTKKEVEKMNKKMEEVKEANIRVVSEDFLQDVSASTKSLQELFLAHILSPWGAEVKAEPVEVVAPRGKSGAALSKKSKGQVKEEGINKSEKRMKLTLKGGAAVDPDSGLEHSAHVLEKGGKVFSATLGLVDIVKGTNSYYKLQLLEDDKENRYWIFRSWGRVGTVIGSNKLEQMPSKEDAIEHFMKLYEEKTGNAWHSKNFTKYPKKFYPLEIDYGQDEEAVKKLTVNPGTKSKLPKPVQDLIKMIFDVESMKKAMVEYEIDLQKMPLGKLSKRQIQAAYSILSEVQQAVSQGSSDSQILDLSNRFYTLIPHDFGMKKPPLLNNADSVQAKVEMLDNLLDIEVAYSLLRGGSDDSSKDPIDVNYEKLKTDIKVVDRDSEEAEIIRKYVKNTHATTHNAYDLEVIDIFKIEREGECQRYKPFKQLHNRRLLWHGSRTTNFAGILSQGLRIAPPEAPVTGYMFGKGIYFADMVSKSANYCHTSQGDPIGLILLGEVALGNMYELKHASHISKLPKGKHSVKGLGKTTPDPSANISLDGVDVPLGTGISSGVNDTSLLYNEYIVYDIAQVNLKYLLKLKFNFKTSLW

As to `CNCc1ccc(-c2cc3cc(F)cc(C(N)=O)c3o2)cc1` [compound 5b, 5-fluoro-2-{4-[(methylamino)methyl]phenyl}benzofuran-7-carboxamide], the IC50 in test [1] was 590 ± 150 nM; in test [2], > 10000 nM; in test [3] (PARP family panel), 3.2 nM; in test [4], 1.9 nM; in test [5] it was 1600 nM; in test [6], 1300 nM. The “inhibitory activity on PARP1/2 relative to other isoenzymes in the family” value in test [3] (PARP1/2 versus PARP3, TNKS1, TNKS2, PARP6) is given as “at least 400 times”.

The record behind these values is patent publication US9533965B2, “2-arylbenzofuran-7-formamide compounds, preparation method and use thereof” (SHANGHAI INSTITUTE OF MATERIA MEDICA, CHINESE ACADEMY OF …, priority 2012, dated 2017).
